Conditions: 343.15 K, Liquid, Vibrating tube method

CCCCCC(=O)OCC(COC(=O)CCCCC)(COC(=O)CCCCC)COC(=O)CCCCC [pentaerythritol tetrahexanoate]
Conditions	mass density [kg/m3]
5696.7 kPa	961.3
5737.4 kPa	961.4
5771.4 kPa	961.4
5805.5 kPa	961.6
5839.7 kPa	961.6
5880 kPa	961.6
5913.7 kPa	961.6
5948.1 kPa	961.5
5988.1 kPa	961.6
6021.6 kPa	961.7
6055.8 kPa	961.8
6095.9 kPa	961.7
6130 kPa	961.7
6163.7 kPa	961.6
6303.4 kPa	962.1
6343 kPa	961.7
6375.6 kPa	961.9
6408.1 kPa	961.9
6440.4 kPa	961.9
6478.6 kPa	962.1
6509.9 kPa	962
6541 kPa	962.1
6572.6 kPa	962.1
6608.9 kPa	962.2
6752.3 kPa	962.2
6777.5 kPa	962.2
6802.4 kPa	962.2
6831.3 kPa	962.4
6854.2 kPa	962.2
6882.2 kPa	962.3
6906 kPa	962.3
6930.2 kPa	962.3
6953.5 kPa	962.4
6977.2 kPa	962.4
7001.2 kPa	962.4
7029.7 kPa	962.4
7054.1 kPa	962.6
7078.2 kPa	962.6
7102.1 kPa	962.5
7130.7 kPa	962.4
7154.9 kPa	962.5
7179.4 kPa	962.5
7208.3 kPa	962.6
7233.7 kPa	962.6
7260 kPa	962.6
7284.4 kPa	962.6
7309.2 kPa	962.7
7338.6 kPa	962.7
7363.8 kPa	962.7
7388.9 kPa	962.6
7418.5 kPa	962.7
7443.8 kPa	962.8
7469 kPa	962.8
7499.3 kPa	962.8
7524.9 kPa	962.8
7767.9 kPa	962.9
7799 kPa	963
7825.1 kPa	963.1
7851.3 kPa	962.9
7877.7 kPa	963.1
7909.5 kPa	963.1
7936.7 kPa	963
7963.5 kPa	963.3
7989.9 kPa	963.2
8021.4 kPa	963.1
8047.9 kPa	963.1
8074.4 kPa	963.2
8105.7 kPa	963.3
8131.9 kPa	963.3
8158.1 kPa	963.4
8189.5 kPa	963.3
8215.6 kPa	963.3
8242.5 kPa	963.3
8269.2 kPa	963.4
8301.8 kPa	963.4
8328.6 kPa	963.3
8355.6 kPa	963.5
8382.4 kPa	963.3
8415.2 kPa	963.5
8442.4 kPa	963.4
8469.3 kPa	963.5
8502.3 kPa	963.5
8646.3 kPa	963.7
8736.5 kPa	963.7
8764.6 kPa	963.7
8798.5 kPa	963.7
8827.2 kPa	963.9
8855.8 kPa	963.7
8890.1 kPa	963.9
8919.1 kPa	963.8
8953.7 kPa	964
8982.7 kPa	963.9
9012.2 kPa	963.9
9047.3 kPa	964
9077.3 kPa	963.9
9107.5 kPa	964
9137.5 kPa	964
9173.3 kPa	964
9362.4 kPa	964.1
9399.5 kPa	964.2
9430.7 kPa	964.2
9462.9 kPa	964.2
9496.5 kPa	964.2
9527.5 kPa	964.2
9565.2 kPa	964.4
9800.6 kPa	964.4
11008 kPa	965.5
11050 kPa	965.3
11087 kPa	965.3
11123 kPa	965.3
11159 kPa	965.4
11202 kPa	965.4
11238 kPa	965.5
11274 kPa	965.6
11701 kPa	965.7
11736 kPa	965.9
11778 kPa	965.9
11813 kPa	965.9
11848 kPa	966
11889 kPa	965.9
11924 kPa	965.9
11958 kPa	966
11998 kPa	966.1
12031 kPa	966.2
12159 kPa	966.1
12190 kPa	966.2
12236 kPa	966.3
12264 kPa	966.2
12287 kPa	966.4
12310 kPa	966.3
12337 kPa	966.4
12361 kPa	966.4
12383 kPa	966.3
12808 kPa	966.7
12827 kPa	966.7
12842 kPa	966.7
12857 kPa	966.7
12873 kPa	966.7
12892 kPa	966.7
12909 kPa	966.7
12927 kPa	966.8
12989 kPa	966.8
13011 kPa	966.7
13039 kPa	966.9
13064 kPa	967
13093 kPa	966.8
13131 kPa	966.9
13169 kPa	966.9
13207 kPa	966.9
13245 kPa	966.9
13290 kPa	967
13328 kPa	967.2
13373 kPa	967
13409 kPa	967.1
13559 kPa	967.3
13566 kPa	967.3
13908 kPa	967.5
13933 kPa	967.3
13985 kPa	967.4
14253 kPa	967.7
14284 kPa	967.7
14335 kPa	967.9
14361 kPa	967.8
14387 kPa	967.8
14418 kPa	967.8
14469 kPa	967.9
14756 kPa	968.1
14783 kPa	968.1
14816 kPa	968.1
14843 kPa	968.2
15289 kPa	968.4
15317 kPa	968.4
15350 kPa	968.4
15379 kPa	968.4
15408 kPa	968.4
15436 kPa	968.6
15470 kPa	968.5
15498 kPa	968.6
15525 kPa	968.6
15558 kPa	968.6
15584 kPa	968.6
15615 kPa	968.6
16026 kPa	968.9
16081 kPa	968.9
16112 kPa	968.9
16138 kPa	969
16163 kPa	969
16189 kPa	969.1
16220 kPa	969
16246 kPa	969.1
16272 kPa	969
16303 kPa	969
16328 kPa	969.2
16525 kPa	969.2
16552 kPa	969.4
16584 kPa	969.3
16611 kPa	969.4
16638 kPa	969.2
16666 kPa	969.3
16699 kPa	969.4
16726 kPa	969.4
16754 kPa	969.4
16782 kPa	969.5
16815 kPa	969.5
16844 kPa	969.5
17457 kPa	970
17484 kPa	970
17516 kPa	970
17543 kPa	970
17571 kPa	970
17599 kPa	969.9
17632 kPa	970
17686 kPa	970
17714 kPa	970.1
17747 kPa	970.3
17775 kPa	970.2
17808 kPa	970.2
17836 kPa	970
17864 kPa	970.2
17898 kPa	970.1
17926 kPa	970.3
17954 kPa	970.3
17983 kPa	970.2
18017 kPa	970.3
18046 kPa	970.3
18080 kPa	970.3
18109 kPa	970.3
18137 kPa	970.4
18165 kPa	970.3
18200 kPa	970.4
18228 kPa	970.5
18261 kPa	970.5
18289 kPa	970.4
18316 kPa	970.6
18346 kPa	970.5
18370 kPa	970.6
18394 kPa	970.5
18418 kPa	970.6
18446 kPa	970.5
18471 kPa	970.6
18495 kPa	970.7
18524 kPa	970.7
18656 kPa	970.8
18681 kPa	970.8
18706 kPa	970.8
18732 kPa	970.7
18761 kPa	970.8
18787 kPa	970.9
18812 kPa	970.8
18842 kPa	970.9
18867 kPa	970.9
18923 kPa	971
18949 kPa	970.9
18975 kPa	971.1
19008 kPa	971
19034 kPa	971
19060 kPa	971.1
19085 kPa	971
19632 kPa	971.4
19654 kPa	971.4
19677 kPa	971.5
19700 kPa	971.5
19726 kPa	971.4
19747 kPa	971.4
19768 kPa	971.5
19790 kPa	971.5
19809 kPa	971.6
19830 kPa	971.5
19850 kPa	971.6
20110 kPa	971.8
20121 kPa	971.8
20124 kPa	971.8
20125 kPa	971.7
20126 kPa	971.8
20127 kPa	971.9
20128 kPa	971.8
21458 kPa	972.6
21485 kPa	972.7
21513 kPa	972.7
21545 kPa	972.7
21573 kPa	972.7
21600 kPa	972.8
21630 kPa	972.7
21654 kPa	972.8
21678 kPa	972.6
21708 kPa	972.7
21835 kPa	972.9
21865 kPa	972.9
21890 kPa	973
21915 kPa	973
